Patent publication US12285528B2, “Injectable formulations of anesthetics for any pathological pain” (New Jersey Institute of Technology, priority 2018, dated 2025)

Experiments:
Assay type in all cases: in vivo, rat
[1] = system: incision-induced mechanical pain hypersensitivity; test: Incisional pain model, mechanical allodynia (paw withdrawal threshold, von Frey) after peri-sciatic nerve injection; settings: 0.25%, 0.2 mL peri-sciatic, P<0.05
Protocol: (§1) Male and female Sprague-Dawley rats weighing 200-250 g were obtained from Charles River Laboratories (Wilmington, MA). All rats were housed in an animal facility that was kept in a standard 12-h light/dark cycle, with standard laboratory water and food pellets available ad libitum. Animal experiments were conducted with the approval of the Animal Care and Use Committee at Rutgers-New Jersey Medical School and were consistent with the ethical guidelines of the US National Institutes of Health and the International Association for the Study of Pain. All efforts were made to minimize animal suffering and to reduce the number of animals used. To minimize intra- and inter-individual variability of behavioral outcome measures, animals were trained for 1-2 days before behavioral testing was performed. The experimenters were blinded to treatment condition during behavioral testing.
(§2) The incisional surgery was carried out with minor modification as described in T. J. Brennan, et al., Characterization of a rat model of incisional pain, Pain, 64 (1996) 493-501. Rats were anesthetized with 2% isoflurane delivered via a nose cone. The plantar aspect of the left hindpaw was prepared in a sterile manner with a 10% povidone-iodine solution. A 1-cm longitudinal incision was made with a number 11 blade, through skin and fascia of the plantar aspect of the foot, starting 0.5 cm from the proximal edge of the heel and extending toward the toes. The plantaris muscle was elevated and incised longitudinally. After hemostasis with gentle pressure, the skin was sutured with 5-0 nylon thread. The wound site was covered with a mixture of polymixin B, neomycin, and bacitracin ointment. After surgery, the animals were allowed to recover in their cages.
(§3) The rats received sciatic nerve block under inhalation anesthesia with isoflurane. Nerve block injections were performed with a 20-gauge needle under isoflurane-oxygen anesthesia as described in J. G. Thalhammer, et al., Neurologic evaluation of the rat during sciatic nerve block with lidocaine, Anesthesiology, 82 (1995) 1013-1025. […]

[2] = system: incision-induced thermal pain hypersensitivity; test: Incisional pain model, heat allodynia (paw withdrawal latency) after peri-sciatic nerve injection; settings: 0.25%, P<0.05
Protocol: as §1, §2, §3

[3] = system: postsurgical pain (hindpaw plantar incision); test: Incisional pain model, overall analgesic effect (mechanical and heat) after peri-sciatic nerve injection; settings: 0.25%, 0.2 mL peri-sciatic
Protocol: as §1
The incisional surgery was carried out with minor modification as described in T. J. Brennan, et al., Characterization of a rat model of incisional pain, Pain, 64 (1996) 493-501. Rats were anesthetized with 2% isoflurane delivered via a nose cone. The plantar aspect of the left hindpaw was prepared in a sterile manner with a 10% povidone-iodine solution. […]

[4] = system: locomotor function; test: Locomotor function test (placing, grasping, righting reflexes); settings: 0.25%
Protocol: The rats were divided into different groups according to the different pain model performed (incisional pain model or SNI model), and were injected with 0.2 mL of a sustained-release ropivacaine hydrochloride PBS solution (SRR or alternatively, PLGA-ROPI) containing 0.25%, 0.125%, and 0.06% of PLGA-ROPI or PLGA-RVC·HCl, a PBS solution containing 0.25% free ropivacaine (FR or alternatively, Free-ROPI), and 2 control solutions of a neat PBS, and a neat PLGA, respectively. The % used here refers to the weight (gram %) of PLGA-ROPI or PLGA-RVC·HCl by the volume (mL) of the solution. For example, 0.25% refers to 0.25 g/100 mL. The animals were divided into 10 groups: incision+0.25% SRR, incision+0.125% SRR, incision+0.06% SRR, incision+0.25% FR, incision+PLGA, incision+PBS. SNI+0.25% SRR, SNI+0.125% SRR, SNI+0.06% SRR, SNI+PBS. Each group contained 8 rats. […] For the SNI model, mechanical and cold allodynia with 1 h intervals were used to examine rats 1 d before surgery and 7 d post-surgery, post peri-sciatic nerve injection on 7 d post-surgery, and the behavior test was resumed on d8, d10, d12, d14, d16, d19, and d22. Tests of locomotor function, including placing, grasping and righting reflexes, were performed before and after incision surgery according to the previously described protocol in Y. X. Tao, et al., Impaired neuropathic pain and preserved acute pain in rats overexpressing voltage-gated potassium channel subunit Kv1.2 in primary afferent neurons, Molecular Pain, 10 (2014) 8. (1) Placing reflex: The rat was held with hind limbs slightly lower than the forelimbs and the dorsal surfaces of the hind paws were brought into contact with the edge of a table. Whether the hind paws were placed on the table surface reflexively was recorded; (2) Grasping reflex: The rat was placed on a wire grid and whether the hind paws grasped the wire on contact was recorded; (3) Righting reflex: The rat's back was placed on a flat surface and whether it immediately assumed the normal upright position was recorded. […] In addition, the animal's general behaviors, including spontaneous activity (e.g. walking and running), were observed.

[5] = system: sciatic nerve and surrounding tissues; test: Histology (H&E) of sciatic nerve and surrounding tissues; settings: 0.25%, 11 days after injection
Excerpt: The rats were anesthetized with isoflurane and sciatic nerves were harvested and fixed in 4% paraformaldehyde. Following tissue fixation and dehydration, sciatic nerves were embedded in Optimal cutting temperature compound (OCT compound) and 20-μm thin slices were cut on a cryostat, then stained using hematoxylin and eosin stain technique. Nerve structures were observed using a Nikon microscope (Nikon Eclipse 80i, Japan). Rats injected with PBS, PLGA, 0.25% FR (i.e., 0.25% Free ROPI), and 0.25% SRR (i.e., 0.25% PLGA-ROPI) were euthanized 11 days after injection (n=3 for each group), and the sciatic nerve and surrounding tissues were harvested, sectioned for histology, and stained with hematoxylin-eosin (H&E). SRR were not observed on gross dissection.

[6] = system: myelin basic protein (MBP) of sciatic nerve; test: Immunohistochemistry, MBP expression pattern of sciatic nerve; settings: 0.25%, 11 days post injection
Protocol: Immunohistochemistry analysis were performed as described previously in Y. X. Tao, et al., Nerve injury-induced epigenetic silencing of opioid receptors controlled by DNMT3a in primary afferent neurons, Pain, 158 (2017) 1153-1165. The rats were anesthetized with isoflurane and perfused with 300 mL of 4% paraformaldehyde in 0.1 M phosphate-buffered saline (PBS) (pH 7.4). After perfusion, sciatic nerves were dissected, postfixed at 4° C. for 4 hours and cryoprotected in 30% sucrose overnight. The transverse and longitudinal sections were cut on a cryostat at a thickness of 20 μm. The sections were blocked for 1 hour at 25° C. in 0.01M PBS containing 5% goat serum and 0.3% Triton X-100. Sections were incubated overnight at 4° C. with mouse anti-myelin basic protein (MBP) (1:500; Biolegend, San Diego, CA). The sections were then incubated with a mixture of goat anti-mouse antibody conjugated to Cy2 (1:500; Jackson ImmunoResearch, West Grove, PA) for 2 hours at room temperature. Immunofluorescence-labeled images were generated using a Leica DMI4000 fluorescence microscope with a DFC365FX camera (Leica, Germany).
To examine whether injection of SRR injured the nerve fiber, we investigated the MBP expression pattern of sciatic nerve on 11 days post injection of PBS, PLGA, 0.25% FR, and 0.25% SRR (n=3 for each group).

[7] = system: sciatic nerve myelin sheath; test: Transmission electron microscopy, ultrastructure of sciatic nerve; settings: 0.25%; day 11 after injection; ipsilateral sciatic nerve; no significant difference among groups
Protocol: The rats were anesthetized with isoflurane and perfused with 300 mL of 2.5% gluteraldehyde in 0.1M sodium cacodylate buffer (pH 7.4). After perfusion, sciatic nerves were dissected, postfixed at 4° C. for 3 hours. After dehydrated by gradient ethanol elution, samples were cleared by propylene, then infiltrated with resin and embed in moulds. Transmission electronic microscopy images were acquired by a Hitachi H-7500 transmission electron microscope (Hitachi, Ltd. Japan). To observe the ultrastructure of sciatic nerve after injection, we harvested ipsilateral sciatic nerves on day 11 after injection of PBS. PLGA, 0.25% FR, and 0.25% SRR (n=3 for each group), then processed the tissue to be examined under TEM. […] Specific features of the degeneration of myelin sheath including thinner lamellae, loose lamellae, split myelin lamellae with discontinuities, or vacuole-like inclusions in the cytoplasm of Schwann cells were not observed in any of the nerve tissue.

[8] = 2 h, normal reflexes in five trials

Grasping reflex score [4, 8]: 4.38(0.63)
Placing reflex score [4, 8]: 5(0)
Righting reflex score [4, 8]: 5(0)
Grasping reflex score ([4]; 12 h): 5(0)
Placing reflex score ([4]; 12 h): 5(0)
Righting reflex score ([4]; 12 h): 5(0)
Grasping reflex score ([4]; 1 d): 5(0)
Placing reflex score ([4]; 1 d): 5(0)
Righting reflex score ([4]; 1 d): 5(0)
locomotor function ([4]; first 2 h after surgery, statistics showed no significant difference): slightly altered
inflammation on microscopic examination (H&E) [5]: no significant inflammation
MBP expression pattern / myelin morphology [6]: no abnormality was observed
Compound: CCCN1CCCC[C@H]1C(=O)Nc1c(C)cccc1C [FR, ropivacaine]
increase of paw withdrawal threshold to mechanical stimulation vs incision+PBS ([1]; 2 h after surgery): 76%
increase of paw withdrawal threshold to mechanical stimulation vs incision+PBS ([1]; 4 h after surgery): 59%
increase of paw withdrawal threshold to mechanical stimulation vs incision+PBS ([1]; 12 h after surgery): 71%
increase of paw withdrawal latency to heat stimulation vs incision+PBS ([2]; 0.2 mL peri-sciatic, 2 h after surgery): 29%
increase of paw withdrawal latency to heat stimulation vs incision+PBS ([2]; 4 h after surgery): 33%
increase of paw withdrawal latency to heat stimulation vs incision+PBS ([2]; 12 h after surgery): 18%
period of analgesic effect [3]: ≤ 24 h post injection
myelin sheath ultrastructure (TEM) [7]: intact and tightly laminated without any discontinuities
